# US20210046106A1, “METHODS OF TREATING CANCER WITH ANDROGEN DEPRIVATION THERAPY IN COMBINATION WITH AN INHIBITOR OF THE SP1 TRANSCRIPTION FACTOR” (The Board of Trustees of the Leland Stanford Junior …, priority 2019, published 2021)
# Values joined by “and” are separate entries in the source; they are usually repeats but may differ in a detail not shown here. Equal values may be shown once. “Also recorded” adds a separate entry of the source.
# Tests used:
# prostate cancer tumors = test: Preclinical: growth of well-established prostate cancer tumors in mice; settings: i.p. and p.o.
# [1] = Phase 1 trial of sodium selenite with palliative radiation therapy: adverse events / toxicity
# Source text: Patients: This study was approved by the Food and Drug Administration (IND 122151), the Stanford University Internal Review Board, and the Scientific Review Committee for the Stanford Cancer Institute. […] The study was initially open only to prostate cancer patients, but then expanded to include a variety of tumor types. […] Before study entry, patients had to meet a number of eligibility criteria. Inclusion criteria included a) histologically-confirmed solid tumor malignancy with confirmation of metastasis, multiple myeloma, or plasmacytoma, b) need for palliative radiation therapy, c) for prostate cancer patients, PSA at least 2 ng/mL, except for patients who had recently started androgen deprivation therapy with PSA less than 2 ng/mL, d) […], e) life expectancy greater than 3 months, f) Eastern Cooperative Oncology Group (ECOG) performance status of zero or one or Karnofsky performance status 80%, and g) QT interval corrected using Fridericia's method (QTcF) <460 msec.
# Patients were treated in groups of three with each receiving the same dose. […] Dose escalation was to proceed as follows: a) if none of the three patients experienced a dose limiting toxicity (DLT), dose escalation to the next dose level would occur, b) if one of three patients treated at that dose level experienced a DLT, that dose level would be expanded to six subjects; if no additional patient in that cohort experienced a DLT, dose escalation to the next dose level would occur, c) if two patients in a cohort experienced a DLT, dose escalation would stop and the prior dose would be considered the maximum tolerated dose (MTD). At that point the MTD was to be expanded to a total of six patients.
# Baseline evaluations included EKG, PSA for prostate cancer patients, CBC with differential, CMP, LDH, bone scan (BS), or CT, PET/CT or MRI as clinically indicated to monitor response to therapy. Palliative radiation therapy utilized standard of care palliative dose/fractionation regimens. On Week 1, Day 1 patients underwent physical exam (PE), laboratory studies as above and EKG. All patients completed a pain inventory, the Brief Pain Inventory, prior to therapy. […] Weekly, during radiation therapy, patients had vital signs performed, with assessment of adverse events (AEs), labs and EKG if clinically indicated. The pain inventory was completed again on the last day of radiation therapy. Following completion of therapy, the first follow-up visit was within 2-3 months +/−2 weeks, with subsequent follow-up visits optional until progression of disease at the site of radiation. […] They also completed another pain inventory.
# [2] = 33 mg cohort, count-attribution
compound,measurement,setting,value
"O=[Se](O)O [sodium selenite, Sodium selenite pentahydrate]",toxicity at the growth-inhibiting doses,prostate cancer tumors,no detectable toxicity
same,Abdominal pain grade 1: Number of Occurrences,[1]; 33 mg cohort,3
same,Abdominal pain grade 1: Number of Subjects Affected,[1]; 33 mg cohort,3
same,Anemia grade 3: Number of Occurrences,[1]; 33 mg cohort,1
same,Anemia grade 3: Number of Subjects Affected,[1]; 33 mg cohort,1
same,Anemia grade 3: Relation to Selenite,[1]; 33 mg cohort,Unrelated
same,Back Pain grade 1: Number of Occurrences,[1]; 33 mg cohort,1
same,Back Pain grade 1: Number of Subjects Affected,[1]; 33 mg cohort,1
same,Back Pain grade 1: Relation to Selenite,[1]; 33 mg cohort,Unrelated
same,Bone Pain grade 1: Number of Occurrences,[1]; 33 mg cohort,1
same,Bone Pain grade 1: Number of Subjects Affected,[1]; 33 mg cohort,1
same,Bone Pain grade 1: Relation to Selenite,[1]; 33 mg cohort,Unrelated
same,Diarrhea grade 1: Number of Occurrences,[1]; 33 mg cohort,5
same,Diarrhea grade 1: Number of Subjects Affected,[1]; 33 mg cohort,4
same,Dizziness grade 1: Number of Occurrences,[1]; 33 mg cohort,1
same,Dizziness grade 1: Number of Subjects Affected,[1]; 33 mg cohort,1
same,Dizziness grade 1: Relation to Selenite,[1]; 33 mg cohort,Probable
same,Dysphagia grade 1: Number of Occurrences,[1]; 33 mg cohort,1
same,Dysphagia grade 1: Number of Subjects Affected,[1]; 33 mg cohort,1
same,Dysphagia grade 1: Relation to Selenite,[1]; 33 mg cohort,Unrelated
same,Dyspnea grade 1: Number of Occurrences,[1]; 33 mg cohort,1
same,Dyspnea grade 1: Number of Subjects Affected,[1]; 33 mg cohort,1
same,Dyspnea grade 1: Relation to Selenite,[1]; 33 mg cohort,Unrelated
same,Dyspnea grade 2: Number of Occurrences,[1]; 33 mg cohort,1
same,Dyspnea grade 2: Number of Subjects Affected,[1]; 33 mg cohort,1
same,Dyspnea grade 2: Relation to Selenite,[1]; 33 mg cohort,Unrelated
same,ECG QTcF Prolonged grade 1: Number of Occurrences,[1]; 33 mg cohort,2
same,ECG QTcF Prolonged grade 1: Number of Subjects Affected,[1]; 33 mg cohort,2
same,ECG QTcF Prolonged grade 1: Relation to Selenite,[1]; 33 mg cohort,Probable
same,Facial Pain grade 1: Number of Occurrences,[1]; 33 mg cohort,1
same,Facial Pain grade 1: Number of Subjects Affected,[1]; 33 mg cohort,1
same,Facial Pain grade 1: Relation to Selenite,[1]; 33 mg cohort,Unrelated
same,Fall (Mechanical) grade 2: Number of Occurrences,[1]; 33 mg cohort,2
same,Fall (Mechanical) grade 2: Number of Subjects Affected,[1]; 33 mg cohort,1
same,Fall (Mechanical) grade 2: Relation to Selenite,[1]; 33 mg cohort,Unrelated
same,Fatigue grade 1: Number of Occurrences,[1]; 33 mg cohort,2
same,Fatigue grade 1: Number of Subjects Affected,[1]; 33 mg cohort,2
same,Fatigue grade 1: Relation to Selenite,[1]; 33 mg cohort,Possible
same,Fatigue grade 2: Number of Occurrences,[1]; 33 mg cohort,2
same,Fatigue grade 2: Number of Subjects Affected,[1]; 33 mg cohort,1
same,Fatigue grade 2: Relation to Selenite,[1]; 33 mg cohort,"Unrelated,; also recorded: Possible"
same,Flu-like Symptoms grade 1: Number of Occurrences,[1]; 33 mg cohort,2
same,Flu-like Symptoms grade 1: Number of Subjects Affected,[1]; 33 mg cohort,1
same,Flu-like Symptoms grade 1: Relation to Selenite,[1]; 33 mg cohort,Unrelated
same,Nausea grade 1: Number of Occurrences,[1]; 33 mg cohort,8
same,Nausea grade 1: Number of Subjects Affected,[1]; 33 mg cohort,5
same,Nausea grade 2: Number of Occurrences,[1]; 33 mg cohort,1
same,Nausea grade 2: Number of Subjects Affected,[1]; 33 mg cohort,1
same,Paresthesia grade 1: Number of Occurrences,[1]; 33 mg cohort,1
same,Paresthesia grade 1: Number of Subjects Affected,[1]; 33 mg cohort,1
same,Paresthesia grade 1: Relation to Selenite,[1]; 33 mg cohort,Unrelated
same,Sore Throat grade 1: Number of Occurrences,[1]; 33 mg cohort,1
same,Sore Throat grade 1: Number of Subjects Affected,[1]; 33 mg cohort,1
same,Sore Throat grade 1: Relation to Selenite,[1]; 33 mg cohort,Unrelated
same,Upper Respiratory Infection grade 1: Number of Occurrences,[1]; 33 mg cohort,1
same,Upper Respiratory Infection grade 1: Number of Subjects Affected,[1]; 33 mg cohort,1
same,Upper Respiratory Infection grade 1: Relation to Selenite,[1]; 33 mg cohort,Unrelated
same,Vomiting grade 1: Number of Occurrences,[1]; 33 mg cohort,6
same,Vomiting grade 1: Number of Subjects Affected,[1]; 33 mg cohort,2
same,Vomiting grade 2: Number of Occurrences,[1]; 33 mg cohort,1
same,Vomiting grade 2: Number of Subjects Affected,[1]; 33 mg cohort,1
same,Vomiting grade 2: Relation to Selenite,[1]; 33 mg cohort,Probable
same,Abdominal pain grade 1: Relation to Selenite,[1]; [2],"1-Possible, and 2-Probably"
same,Diarrhea grade 1: Relation to Selenite,[1]; [2],"2-Possible, and 3-Probable"
same,Vomiting grade 1: Relation to Selenite,[1]; [2],"4-Probable, and 2-Unlikely"
same,Nausea grade 1: Relation to Selenite,"[1]; 33 mg cohort, printed 7-Probable, 1-Unrelated over four lines","Probable,; also recorded: Unrelated"
same,Nausea grade 2: Relation to Selenite,"[1]; 33 mg cohort, printed Probable/Definite over two lines",Probable/; also recorded: Definite
same,primary toxicities,[1]; 33 mg dose level,grade 1 GI side effects
same,QT prolongation,"[1]; 33 mg dose level, ECG review",grade 1 QT prolongation in 2 patients; also recorded: two patients had grade 1 ECG QTcF prolongations; also recorded: within the range of expected intra-subject variability
same,primary toxicities,"[1]; 33 mg dose level, listed as selenite",grade 1 GI side effects; also recorded: grade 1 GI toxicities
same,Back Pain grade 2: Number of Occurrences,[1]; 49.5 mg cohort,1
same,Back Pain grade 2: Number of Subjects Affected,[1]; 49.5 mg cohort,1
same,Back Pain grade 2: Relation to Selenite,[1]; 49.5 mg cohort,Unrelated
same,Diarrhea grade 2: Number of Occurrences,[1]; 49.5 mg cohort,1
same,Diarrhea grade 2: Number of Subjects Affected,[1]; 49.5 mg cohort,1
same,Diarrhea grade 2: Relation to Selenite,[1]; 49.5 mg cohort,Possible
same,Fatigue grade 1: Number of Occurrences,[1]; 49.5 mg cohort,1
same,Fatigue grade 1: Number of Subjects Affected,[1]; 49.5 mg cohort,1
same,Fatigue grade 1: Relation to Selenite,[1]; 49.5 mg cohort,Possible
same,Nausea grade 1: Number of Occurrences,[1]; 49.5 mg cohort,1
same,Nausea grade 1: Number of Subjects Affected,[1]; 49.5 mg cohort,1
same,Nausea grade 1: Relation to Selenite,[1]; 49.5 mg cohort,Probable
same,Nausea grade 2: Number of Occurrences,[1]; 49.5 mg cohort,1
same,Nausea grade 2: Number of Subjects Affected,[1]; 49.5 mg cohort,1
same,Nausea grade 2: Relation to Selenite,[1]; 49.5 mg cohort,Probable
same,Pain in Extremity grade 2: Number of Occurrences,[1]; 49.5 mg cohort,1
same,Pain in Extremity grade 2: Number of Subjects Affected,[1]; 49.5 mg cohort,1
same,Pain in Extremity grade 2: Relation to Selenite,[1]; 49.5 mg cohort,Unrelated
same,Vomiting grade 1: Number of Occurrences,[1]; 49.5 mg cohort,1
same,Vomiting grade 1: Number of Subjects Affected,[1]; 49.5 mg cohort,1
same,Vomiting grade 1: Relation to Selenite,[1]; 49.5 mg cohort,Probable
same,Vomiting grade 2: Number of Occurrences,[1]; 49.5 mg cohort,1
same,Vomiting grade 2: Number of Subjects Affected,[1]; 49.5 mg cohort,1
same,Vomiting grade 2: Relation to Selenite,[1]; 49.5 mg cohort,Probable
same,toxicity in the one patient at 49.5 mg,"[1]; 49.5 mg dose level, 1 patient","grade 2 nausea/vomiting and diarrhea; also recorded: grade 2 GI toxicity; also recorded: grade 2 diarrhea, nausea and vomiting"
same,toxicity / adverse events attributable to selenite,"[1]; 5.5, 11 and 16.5 mg dose levels, oral 2 h before RT",no toxicity attributable to selenite; also recorded: no adverse events attributable to selenite; also recorded: no AEs attributable to the selenite
same,toxicities at all other dose levels,[1]; 33 and 49.5 mg dose levels,grade 1 and 2 GI toxicities
same,maximum tolerated dose (MTD),[1]; doses 5.5 to 49.5 mg po/day with RT,not reached
same,highest acceptable / reasonably well tolerated dose,"[1]; oral once daily with RT, ondansetron prn",33 mg
